What was measured:
Normal Conscious Rat [1] = experiment: Urinary electrolytes and urinary osmotic pressure in conscious rat; format: in vivo, rat (Sprague-Dawley, male); details: 0-2 hours, relation to urine volume
Protocol: (§1) Studies were performed with Sprague-Dawley male SPF rats (body weight: 240 to 320 g; 8-week-old). In this experiment, each group consisted of not less than 4 animals and rats were fasted over 16 to 20 hours. The animals were acclimatized in metabolic cages for one hour, then each compound to be tested was dissolved in 100% N,N-dimethylformamide or suspended in 5% gum arabic solution and administered to these animals intravenously (iv.) in a dose of 3 mg/kg or orally (p.o.) in a dose of 30 mg/kg. Immediately after the test compound or vehicle were orally administered, saline (25 ml/kg) was given orally. Spontaneous voided urines were collected for 4 hours after the administration of the compound and the amount of the urine were determined. In this case, the control group consisted of animals to which only 5% gum arabic was orally administered.
Separately, the cumulative urine in each animal was collected for 2 hours after the administration of the compound, and analyze the amounts of sodium and potassium as electrolytes present in the urine (ion-selective electrode method), the amount of chlorine (coulometric titration) and urinary osmotic pressure (cryoscopic method). The results thus observed for typical compounds of the present invention are plotted on the accompanying drawings (FIGS. 1, 2, 3 and 4). […]. In this test, each compound tested was used in the following dose. […]

Normal Conscious Rat [2] = experiment: Aquaretic Effects in Normal Conscious Rat (urine volume); format: in vivo, rat (Sprague-Dawley, male)
Protocol: Aquaretic Effects in Normal Conscious Rat
as §1
In addition, known compounds of Comparative Examples 2 and Comparative Examples 3 and 4 represented by the following formulas were used as control compounds.

For `NS(=O)(=O)c1cc(C(=O)O)c(NCc2ccco2)cc1Cl` [Comp. Ex. 3, Furosemide, reference compound], the urinary osmotic pressure (Normal Conscious Rat [1]; FIG. 4) was “increased approximately in proportion to the increase in the amount of the urine”, the “amount of electrolytes excreted in the urine” value (Normal Conscious Rat [1]; FIGS. 1-3) was “increased approximately in proportion to the increase in the amount of the urine” and the “Amount of Urine Volume” value (Normal Conscious Rat [2]; 3 mg/kg, i.v.) was 27.3 ml/kg/0-4 hr. For the same compound, the “Amount of Urine Volume” value (Normal Conscious Rat [2]; 30 mg/kg, p.o.) was 59.9 ml/kg/0-4 hr.
